Measurements published in PMC7699649 (Communications Biology, 2020).
No end group written: not given here.

What was measured:
[1] = test system: human red blood cells; test: Haemolysis assay; type: cell-based; details: human red blood cells in PBS, 1 h 37 °C, OD550, relative to 0.1% Triton-X-100; for concentration at which 10% haemolysis is achieved: three biological replicates
Procedure: Haemolysis was tested by incubating titrations of AMPs in PBS with freshly collected human red blood cells for 1 h at 37 °C. Control wells were treated with 0.1% Triton-X-100 to ensure complete lysis, or PBS-only to represent no lysis. Samples were spun down to remove non-lysed cells and the OD550 of the supernatant was measured using a Clariostar plate reader. The percentage of haemolysis was calculated as % haemolysis = (AP − AB)/(AC − AB) × 100, where AP is the absorbance value for a known peptide concentration, AC is the absorbance of the 0.1% Triton-X-100 control, AB is the absorbance of the PBS control. Data presented are averages and standard error from three biological replicate experiments.

[2] = test system: Pseudomonas aeruginosa PAO1; details: Supplementary Table 3; medium not stated; at least three biological replicates
Procedure: (§1) The antibacterial activity of the peptides was assessed through a modified twofold broth microdilution assay with modal MICs generated from at least three biological replicate experiments[20],[25]. The method broadly followed EUCAST methodology, with non-cation-adjusted Mueller Hinton or RPMI replacing cation-adjusted Mueller Hinton. Peptides and antibiotics were diluted in a twofold dilution in media down a 96 well plate. Bacteria were then added, back-diluted from an overnight culture, at a starting concentration of 5 × 10^5 CFU/ml. Plates were incubated, static at 37 C, for 20 h and the OD600 was determined using a Clariostar plate reader (BMG Labtech). […] Synergy was measured using standard microdilution checkerboard assays under the same conditions as the MICs[54]. Twofold dilution series of each peptide or antibiotic were prepared in separate 96 well plates and then combined into one before addition of bacteria. The growth/no growth interface was determined using the same definition as the MIC. The fractional inhibitory concentration was calculated from the most synergistic well on the plate for three independent repeats, and presented as the average +/− standard deviation. FIC is calculated as (MIC of compound A in combination with B/MIC of compound A alone) + (MIC of compound B in combination with A/MIC of compound B alone). MICs were determined on the same plates as the FICs to increase reproducibility.

[3] = test system: Pseudomonas aeruginosa NCTC 13437; details: Supplementary Table 3; medium not stated; at least three biological replicates
Procedure: as §1

[4] = test system: Acinetobacter baumannii ATCC 17978; details: Supplementary Table 3; medium not stated; at least three biological replicates
Procedure: as §1

[5] = test system: EMR Staphylococcus aureus-15 NCTC 13616; details: Supplementary Table 3; medium not stated; at least three biological replicates
Procedure: as §1

[6] = test system: Klebsiella pneumoniae NCTC 13368; details: Supplementary Table 3; medium not stated; at least three biological replicates
Procedure: as §1

[7] = test system: Klebsiella pneumoniae M6; details: Supplementary Table 3; medium not stated; at least three biological replicates
Procedure: as §1

[8] = test system: VR Enterococcus faecium NCTC 12204; details: Supplementary Table 3; medium not stated; at least three biological replicates
Procedure: as §1

[9] = test system: MS Staphylococcus aureus ATCC 9144; details: Supplementary Table 3; medium not stated; at least three biological replicates
Procedure: as §1

[10] = test system: Acinetobacter baumannii AYE; details: Supplementary Table 3; medium not stated; at least three biological replicates
Procedure: as §1

[11] = test system: EMR Staphylococcus aureus-16 NCTC 13277; details: Supplementary Table 3; medium not stated; at least three biological replicates
Procedure: as §1

[12] = test system: VS Enterococcus faecalis NCTC 775; details: Supplementary Table 3; medium not stated; at least three biological replicates
Procedure: as §1

[13] = test system: Escherichia coli NCTC 12923; details: Supplementary Table 3; medium not stated; at least three biological replicates
Procedure: as §1

| Compound | haemolysis at the highest concentration tested 400 µg/ml [1] | Antibiogram, antibiotic concentration (MIC) [2] | Antibiogram, antibiotic concentration (MIC) [3] | Antibiogram, antibiotic concentration (MIC) [4] | Antibiogram, antibiotic concentration (MIC) [5] | Antibiogram, antibiotic concentration (MIC) [6] | Antibiogram, antibiotic concentration (MIC) [7] | Antibiogram, antibiotic concentration (MIC) [8] | Antibiogram, antibiotic concentration (MIC) [9] | Antibiogram, antibiotic concentration (MIC) [10] | Antibiogram, antibiotic concentration (MIC) [11] | Antibiogram, antibiotic concentration (MIC) [12] | concentration at which 10% haemolysis is achieved [1] | Antibiogram, antibiotic concentration (MIC) [13] |
| --- | --- | --- | --- | --- | --- | --- | --- | --- | --- | --- | --- | --- | --- | --- |
| GWGSFFKKAAHAGKHAGKAALTHYL-NH2 [Pleurocidin-VA] | Neither pleurocidin-VA nor D-pleurocidin-VA induce detectable haemolysis |  |  |  |  |  |  |  |  |  |  |  |  |  |
| CC(C)(O/N=C(\C(=O)N[C@@H]1C(=O)N2C(C(=O)[O-])=C(C[n+]3ccccc3)CS[C@H]12)c1csc(N)n1)C(=O)O [Ceftazidime] |  | 1 µg/mL | > 128 µg/mL | < 0.5 µg/mL | 128 µg/mL | 512 µg/mL | < 0.5 µg/mL | > 128 µg/mL | 16 µg/mL | > 128 µg/mL | 8 µg/mL | 32 µg/mL |  |  |
| GWGSFFRRAAHVGRHVGRAALTHYL-NH2 [Pleurocidin-KR] |  |  |  |  |  |  |  |  |  |  |  |  | 192 µg/mL |  |
| Colistin |  | 2 µg/mL | 4 µg/mL | 1 µg/mL | > 128 µg/mL | 1 µg/mL | 2 µg/mL |  |  | 1 µg/mL |  |  |  | 0.0625 µg/mL |
| O=C(O)c1cn(C2CC2)c2cc(N3CCNCC3)c(F)cc2c1=O [Ciprofloxacin] |  | 0.5 µg/mL | 64 µg/mL | 0.5 µg/mL | 64 µg/mL | 0.5 µg/mL | < 0.5 µg/mL | 1 µg/mL | 1 µg/mL | 128 µg/mL | 128 µg/mL | 2 µg/mL |  | ≤ 0.125 µg/mL |
| NC[C@H]1O[C@H](O[C@H]2[C@H](O)[C@@H](O[C@H]3O[C@H](CO)[C@@H](O)[C@H](N)[C@H]3O)[C@H](N)C[C@@H]2N)[C@H](N)C[C@@H]1O [Tobramycin] |  | 2 µg/mL | 64 µg/mL | 4 µg/mL | 0.5 µg/mL | 64 µg/mL | 8 µg/mL | 64 µg/mL | 0.25 to 0.5 µg/mL | 64 µg/mL | 0.25 µg/mL | 4 µg/mL |  | 16 µg/mL |
| GWGSFFKKAAHVGKHVGKAALTHYL-NH2 [Pleurocidin, reference compound] | 50% |  |  |  |  |  |  |  |  |  |  |  | 120 µg/mL |  |
| CNC(C)C1CCC(N)C(OC2C(N)CC(N)C(OC3OCC(C)(O)C(NC)C3O)C2O)O1 (centres unmarked) [Gentamicin] |  | 4 µg/mL | 256 µg/mL | 0.5 µg/mL | 0.25 µg/mL | 4 µg/mL | 0.25 µg/mL | 4 µg/mL | 0.25 µg/mL | > 512 µg/mL | 0.25 µg/mL | 4 µg/mL |  | 1 µg/mL |
